Laboratory results taken from US7247756B2, “1,4-disubstituted benzenes as insecticides” (Bayer CropScience AG, priority 2000, dated 2007).
Where “and” joins values, the source holds several entries; their conditions need not be identical. Equal values may be shown once.

Tested on: tobacco budworm (Heliothis virescens [Fabricius])
Assay: surface-treated diet test against tobacco budworm
Format: in vivo
Conditions: second instar larvae, five-day exposure
Experimental: Candidate insecticides are evaluated for activity against the tobacco budworm (Heliothis virescens [Fabricius]) in a surface-treated diet test.
In this test one mL of molten (65–70° C.) wheat germ-based artificial diet is pipetted into each well of a four by six (24 well) multi-well plate (ID#430345-15.5 mm dia.×17.6 mm deep; Corning Costar Corp., One Alewife Center, Cambridge, Mass. 02140). The diet is allowed to cool to ambient temperature before treatment with candidate insecticide.
For a determination of insecticidal activity, solutions of the candidate insecticides are prepared for testing using a Packard 204DT Multiprobe® Robotic System (Packard Instrument Company, 800 Research Parkway, Meriden, Conn. 06450), in which the robot first dilutes a standard 50 millimolar DMSO solution of candidate insecticide with a 1:1 water/acetone solution (V/V) in a ratio of 1:7 stock solution to water/acetone. The robot subsequently pipettes 40 microliters of the so-prepared solution onto the surface of the diet in each of three wells in the 24 multi-well plate. The process is repeated with solutions of seven other candidate insecticides. Once treated, the contents of the multi-well plate are allowed to dry, leaving 0.25 millimoles of candidate insecticide on the surface of the diet, or a concentration of 0.25 millimolar. Appropriate untreated controls containing only DMSO on the diet surface are also included in this test.
For evaluations of the insecticidal activity of a candidate insecticide at varying rates of application, the test is established as described above using sub-multiples of the standard 50 millimolar DMSO solution of candidate insecticide. For example, the standard 50 millimolar solution is diluted by the robot with DMSO to give 5, 0.5, 0.05, 0.005, 0.0005 millimolar, or more dilute solutions of the candidate insecticide. In these evaluations there are six replicates of each rate of application placed on the surface of the diet in the 24 multi-well plate, for a total of four rates of application of candidate insecticide in each plate.
In each well of the test plate is placed one second instar tobacco budworm larvea, each weighing approximately five milligrams. After the larvae are placed in each well, the plate is sealed with clear polyfilm adhesive tape. The tape over each well is perforated to ensure an adequate air supply. The plates are then held in a growth chamber at 25° C. and 60% relative humidity for five days (light 14 hours/day).
After the five-day exposure period insecticidal activity for each rate of application of candidate insecticide is assessed as percent inhibition of insect weight relative to the weight of insects from untreated controls, and percent mortality when compared to the total number of insects infested.

[1] = rate of application 5.6 (negative log of the molar concentration of test compound in the diet)
[2] = rate of application 3.6 (negative log of the molar concentration of test compound in the diet)
[3] = rate of application 4.6 (negative log of the molar concentration of test compound in the diet)
[4] = rate of application 6.6 (negative log of the molar concentration of test compound in the diet)

With `CCN(CC)CCOc1ccc(COc2ccc(Cl)c(Cl)c2Cl)cc1` [Compound 308, diethyl(2-(4-((2,3,4-trichlorophenoxy)methyl)phenoxy)ethyl)amine] the “Percent Growth Inhibition” value [1] was 18%.

In the case of `CCN1CCN(c2ccc(COc3cccc4c(Cl)c(Cl)ccc34)cc2)CC1` [Compound 355, 1,2-dichloro-5-{[4-(4-ethylpiperazinyl)phenyl]methoxy}naphthalene], the “Percent Growth Inhibition” value [2] was 100%, the “Percent Mortality” value [2] was 100% and the “Percent Growth Inhibition” value [3] was 100%. For the same compound, the “Percent Mortality” value [3] was 100%, the “Percent Growth Inhibition” value [1] was 96% and the “Percent Mortality” value [1] was 17%. The “Percent Growth Inhibition” value [4] was −2%.

In the case of `CCN(CC)CCOc1ccc(COc2cccc3c(Cl)c(Cl)ccc23)cc1` [Compound 223, (2-(4-((5,6-dichloronaphthyloxy)methyl)phenoxy)ethyl)diethylamine], the “Percent Growth Inhibition” value [4] was 63%.

In the case of “amino(2-(4-((5,6-dichloronaphthyloxy)methyl)phenoxy)ethyl)diethyl-1-one [Compound 183]”, the “Percent Growth Inhibition” value [4] was 28% and 18%.

For `CCN(CC)CCOc1ccc(CNc2ccc(Cl)c3ccccc23)cc1OC` [Compound 263, (2-(4-(((4-chloronaphthyl)amino)methyl)-2-methoxyphenoxy)ethyl)diethylamine], the “Percent Growth Inhibition” value [1] was 26%.

For `CCN(CC)CCOc1ccc(CNc2ccc(Cl)c3ccccc23)cc1` [Compound 84, (2-(4-(((4-chloronaphthyl)amino)methyl)phenoxy)ethyl)diethylamine], the “Percent Growth Inhibition” value [1] was 11%.

In the case of `CCN(CC)CCOc1ccc(COCc2ccc(Cl)c3ccccc23)cc1` [Compound 8, (2-(4-(((4-chloronaphthyl)methoxy)methyl)phenoxy)ethyl)diethylamine], the “Percent Growth Inhibition” value [3] was 11%.

In the case of `CC1CCCC(C)N1CCOc1ccc(COc2ccc(Cl)c3ccccc23)cc1` (stereo not drawn) [Compound 106, 1-(2-(2,6-dimethylpiperidyl)ethoxy)-4-((4-chloronaphthyloxy)methyl)benzene], the “Percent Growth Inhibition” value [4] was 35%.

With `CCN(CC)CCOc1ccc(COc2ccc(Cl)c3cc(Cl)ccc23)cc1` [Compound 216, (2-(4-((4,6-dichloronaphthyloxy)methyl)phenoxy)ethyl)diethylamine] the “Percent Growth Inhibition” value [4] was 1%.
